# Experimental data as given in US20260139063A1, “PRE-MEDICATION AND IMPROVED TREATMENT REGIMEN” (MonTa Biosciences ApS, priority 2022, published 2026).
# Entries after “also recorded” stand apart in the source; their conditions may differ.
# Tests used:
# [1] = system: plasma cytokines and chemokines; test: Clinical plasma biomarkers (cytokines and chemokines, MSD multiplex panels) after MBS8(1V270) with or without tocilizumab pre-medication; type: in vivo, human; details: patients
# Experimental: FIG. 1: Detection of cytokines in plasma of subjects treated with 0.1 mg/kg MBS8(1V270) without (left panels) or with (right panels) pre-medication with tocilizumab (8 mg/kg). The measurements were done using GLP/GCP compliant multiplex panels purchased from Meso Scale Discovery (MSD) (Cytokine Panel 1 Human kit, Cytokine Panel 2 Human kit and Chemokine Panel 1 Human kit). Data treatment was performed using GraphPad Prism 9 software. Selected biomarkers were IL-6 (FIG. 1A), TNF-α (FIG. 1B), IL-1RA (FIG. 1C), IFN-γ (FIG. 1D), IP-10 (FIG. 1E), IL-1β (FIG. 1F), IL-8 (FIG. 1G) and IL-10 (FIG. 1H).
# MBS8(1V270) was administered to all subjects at 0.1 mg/kg by IV infusion for a duration of 2 hours for four dosing occasions. Infusions were given one week apart on Days 1, 8, 15, and 22. Patients pretreated with tocilizumab were administered tocilizumab (8 mg/kg) prior to MBS8(1V270) infusion on the first dosing occasion (day 1) as a CRS preventive measure. The biomarkers were measured using GLP/GCP compliant and validated multiplex panels purchased from MSD in a quantitative procedure to measure these cytokines and chemokines.
# The following plasma biomarkers were identified in this clinical study: safety-related (IL-1β, IL-8, IL-6, TNF-α and IL-10) and pharmacodynamics biomarkers (IFN-γ, MCP-1, IP-10, IL-1RA and IL-12p70) (FIG. 1A-1H). Blood samples were taken at pre-dose (0), 2 h, 8 h, and 24 h post-end of infusion and processed to plasma and frozen for later biomarker analyses.
# [2] = system: subjects presenting with advanced solid tumors; test: Occurrence of Cytokine Release Syndrome (CRS), CTCAE version 5.0 grading, on all dosing occasions; type: in vivo, human
# Experimental: FIG. 2: Table overview (FIG. 2A) of CRS occurrences in patients were assessed according to CTCAE grading, in patients treated with MBS8(1V270) on 4 occasions on day 1, 8, 15 and 22. Patient (pt) 1-3 were not pretreated with tocilizumab, whereas pt 4-7 were pretreated with tocilizumab prior to dosing with MBS8(1V270). All subjects received MBS8(1V270) at 0.1 mg/kg at each dosing occasion, and the clinical picture observed and rated according to the CTCAE grading shown in FIG. 2B. N/A=Not applicable. Table overview (FIG. 2B) of official CTCAE grading of patients with CRS symptoms as used for grading of CRS severeness for patients in FIG. 2A.CRS grading was done according to CTCAE Version 5.0.
# MBS8(1V270) was administered to all subjects at 0.1 mg/kg by IV infusion for a duration of 2 hours for four dosing occasions. Infusions were given one week apart on Days 1, 8, 15, and 22. Patients pretreated with tocilizumab were administered tocilizumab (8 mg/kg) prior to MBS8(1V270) infusion on the first dosing occasion as a CRS preventive measure. […] Seven subjects presenting with advanced solid tumors were treated with MBS8(1V270) at 0.1 mg/kg once weekly on four dosing occasions as described in Example 1. […] Tocilizumab was administered as a one-hour intravenous infusion at 8 mg/kg just prior to MBS8(1V270) administration.
# Occurrence of Cytokine Release Syndrome (CRS) was assessed on all dosing occasions. CRS was defined in accordance with Common Terminology Criteria for Adverse Events (CTCAE) version 5.0 as “a disorder characterized by fever, tachypnea, headache, tachycardia, hypotension, rash, and/or hypoxia caused by the release of cytokines”.
# [3] = tocilizumab 8 mg/kg prior to MBS8(1V270) 0.1 mg/kg IV
# [4] = tocilizumab premedicated patients (pt 4-7): tocilizumab 8 mg/kg IV day 1 just prior to MBS8(1V270) 0.1 mg/kg IV, days 1, 8, 15, 22
substance,measurement,setting,value
"tocilizumab: humanized monoclonal antibody against the interleukin-6 receptor (IL-6R), CAS: 375823-41-9",IFN-γ plasma level after tocilizumab premedication compared with without,[1]; [3],higher levels
same,IL-6 plasma level after tocilizumab premedication compared with without,[1]; [3],higher levels
same,IP-10 plasma level after tocilizumab premedication compared with without,[1]; [3],higher levels
same,interference of tocilizumab with the MoA of MBS8(1V270),[1]; [3],does not interfere
same,effect of tocilizumab pre-medication on cytokine and chemokine levels expected to play a role for the anti-tumor activity of MBS8(1V270),"[1]; tocilizumab 8 mg/kg prior to MBS8(1V270) 0.1 mg/kg IV infusion on day 1, plasma pre-dose, 2 h, 8 h, 24 h post-end of infusion",does not downregulate
same,"CRS observed (clinical signs, CTCAE v5.0)",[2]; patient 4-7 pretreated with tocilizumab 8 mg/kg before MBS8(1V270) 0.1 mg/kg,No clinical signs of CRS; also recorded: no CRS observed at any dosing occasion
same,"CRS experienced, number of dosing occasions",[2]; [4],0 of the 14
same,"CRS experienced, percent of dosing occasions",[2]; [4],0%
